Publication PMC8748556, “CXCR4 peptide-based fluorescence endoscopy in a mouse model of Barrett’s esophagus” (EJNMMI Research, 2022)
Square brackets hold non-standard residues; d marks the D form. Side chains are listed from the residue outwards. Peptide text beside a SMILES is read from it. * marks the point of attachment. X1 = C[N+]1=C(C=CC=CC=C2N(CCCCCC(=O)*)c3ccc(S(=O)(=O)O)cc3C2(C)C)C(C)(C)c2cc(S(=O)(=O)[O-])ccc21; dTyr(3-I) = N[C@H](Cc1ccc(O)c(I)c1)C(=O)O; 2Nal = N[C@@H](Cc1ccc2ccccc2c1)C(=O)O; dNMeOrn = CN[C@H](CCCN)C(=O)O; 4Abz = Nc1ccc(C(=O)O)cc1; dDap = NC[C@@H](N)C(=O)O

Legend:
[1] = test system: dysplastic lesions at the squamocolumnar junction of L2-IL1B mice; assay type: in vivo, mouse
Experimental: Five 12-to-16-month-old IL1B mice were intravenously injected into the tail vein with 60 nmol of MK007 diluted in 0.9% NaCl (tot. vol. 150 µL; 400 nmol/mL) and sacrificed 4 h post injection (p.i.) by isoflurane overdosage. One non-injected 12-month-old IL1B mouse served as negative control. The whole stomach and esophagus were then excised and imaged using a homemade ex vivo wide-field fluorescence imaging system. Briefly, the fluorescence images were acquired at different time exposure (0.2, 0.5, 1 and 2 s), using a 670 nm diode laser (B&W tek, Newark, DE, USA) and appropriate bandpass filter (780/10). A back illuminated EM-CCD camera (iXon DU888, Andor, Belfast, Northern Ireland, UK) was then used to capture the signal. The target-to-background ratio (TBR) of the stomach was performed by dividing the fluorescence signal in the squamocolumnar junction (SCJ) area (target lesion) with the adjacent normal gastric glandular tissue (background area) using ImageJ/Fiji software. In the organs, the signal quantification was performed by calculating the corrected total cell fluorescence/CTCF = integrated density – [(area * AVERAGE (mean background)]. For CTCF, three regions of interest (ROIs) without any tissue were used as background.

[2] = test system: dysplastic lesions of L2-IL1B mice; experiment: Fluorescence molecular endoscopy; assay type: in vivo; details: L2-IL1B mice 12-14 months, 60 nmol i.v., 4 h p.i.; lesion vs normal surrounding esophageal tissue; mean ± SEM, 3 mice, 2-5 lesions per mouse
Experimental: Three L2-IL1B mice (12–14 months old) were used for fluorescence molecular endoscopy before ex vivo imaging. Endoscopy was performed after sacrificing the mice at 4 h p.i. of MK007 using a homemade system previously developed by our group and optimized for small animal imaging. Briefly, the endoscopy system consisted of a flexible fiberscope (Micrendo-Fiberskop, SCHÖLLY FIBER OPTIC GMBH, Denzlingen, Germany) where both white light (provided by a 250-W halogen lamp, KL-2500 LCD, Schott AG, Mainz, Germany) and fluorescence (fiber coupled continuous wave (CW) laser diode emitting at 670 nm, SLD1332V, Thorlabs, Newton, NJ, USA) are coupled, allowing simultaneous color and near-infrared (NIR) fluorescence endoscopy. Videos in color and fluorescence channel were recorded using a custom-made endoscopy software and stored in AVI file format. Two NaCl-injected IL1B mice (17 and 12 months old) were used as negative controls for the validation of the endoscopy system. […] For quantification of Sulfo-Cy5 signal, single frames or frame sequences showing dysplastic lesions were used and the fluorescence signal from the target lesion and the background were quantified with ImageJ by handmade ROIs. […] The TBR was then calculated by dividing the mean fluorescence intensity from the lesion by the one from the background region.

[3] = assay type: physicochemical; details: pH 7.4
Experimental: Given promising data obtained with MK007 in our preclinical mouse model, we performed preliminary in vitro studies on human cell lines. Competition binding studies (IC50) were performed using Jurkat cells (4 × 10^5 cells/sample) and [^125I]FC131 as radioligand. […] To determine the log P of MK007, the corresponding non-iodinated precursor was radioiodinated using the Iodogen method, and the octanol/PBS partition coefficient of [^125I]MK007 was determined using a modified shake-flask-method.

Structure (SMILES): C[C@@H](NC(=O)[C@@H](CCCNC(=N)N)NC(=O)[C@@H](CN)NC(=O)CCCCCN1C(=CC=CC=CC2=[N+](C)c3ccc(S(=O)(=O)[O-])cc3C2(C)C)C(C)(C)c2cc(S(=O)(=O)O)ccc21)C(=O)Nc1ccc(C(=O)NCCC[C@@H]2C(=O)N[C@@H](CCCNC(=N)N)C(=O)N[C@@H](Cc3ccc4ccccc4c3)C(=O)NCC(=O)N[C@H](Cc3ccc(O)c(I)c3)C(=O)N2C)cc1 [MK007] (cyclo([dTyr(3-I)][dNMeOrn]([4Abz-dA-dR-dDap-X1])R[2Nal]G))
- Target-to-background ratio (TBR), ex vivo wide-field imaging ([1]; L2-IL1B mice 12-16 months, 60 nmol i.v., 4 h p.i., SCJ vs adjacent normal gastric glandular tissue, mean ± SEM, n = 5): 2.45 ± 0.24
- mean target-to-background ratio in dysplastic lesions (ex vivo imaging and endoscopy) ([1]; L2-IL1B mice, 4 h after injection, abstract statement covering ex vivo imaging and endoscopy): > 2
- Target-to-background ratio (TBR), fluorescence endoscopy [2]: 2.13 ± 0.17
- log P [3]: − 1.83 ± 0.02
